Like-named read-outs stand apart in the source and are kept apart here. Where no end group is shown, it is not given here.
How the values were obtained:
[1] = in rats, in rabbits, and in humans with Paget's disease; cited from earlier work
[2] = test system: ethanol- or indomethacin-induced gastritis in rats; conditions: cited from earlier work
[3] = target: amylin receptor (membrane-bound, rat basal forebrain membranes containing the nucleus accumbens and surrounding regions) (rat); experiment: competition with 125I-rat amylin on rat basal forebrain membranes
[4] = test system: treated test animals; experiment: Amylin activity in vivo in treated test animals
[5] = test system: ethanol gavaged rat; experiment: Gastroprotection: ethanol-induced mucosal damage in the ethanol gavaged rat; format: in vivo
Source text: The gastroprotective properties of amylin in an animal model for gastritis—the ethanol gavaged rat—are described in this example.
Mucosal damage was scored between 0 (no damage) and 5 (100% of stomach covered by hyperemia and ulceration) by investigators blinded to the treatment. […] This prediction was obtained by applying the published relationship between injected subcutaneous dose and peak plasma concentration in rats. Young, A. A. et al., Drug Devel. Res. 37:231-48 (1996). […] Mimicking this physiological effect is unlikely to result in unwanted side effects, as is often the case with administration of unphysiological xenobiotics.

[6] = test system: Harlan Sprague Dawley (non-diabetic) rats; experiment: Phenol red gastric emptying assay, normal rats; format: in vivo, rat; conditions: 1 μg s.c. 5 minutes before gavage, normal HSD rats
Source text: (§1) Briefly, conscious rats received by gavage. […] Twenty minutes after gavage, rats were anesthetized using 5% halothane, the stomach exposed and clamped at the pyloric and lower esophageal sphincters using artery forceps, removed and opened into an alkaline solution which was made up to a fixed volume. Stomach content was derived from the intensity of the phenol red in the alkaline solution, measured by absorbance at a wavelength of 560 nm. In most experiments, the stomach was clear. In other experiments, particulate gastric contents were centrifuged to clear the solution for absorbance measurements. Where the diluted gastric contents remained turbid, the spectroscopic absorbance due to phenol red was derived as the difference between that present in alkaline vs acetified diluent. […] The quantity of phenol red that could be recovered from the upper gastrointestinal tact within […] of gavage was 89±4%; dye which appeared to bind irrecoverably to the gut luminal surface may have accounted for the balance. To compensate for this small loss, percent of stomach contents remaining after 20 minutes were expressed as a fraction of the gastric contents recovered from control rats sacrificed immediately after gavage in the same experiment. Percent gastric emptying contents remaining=(absorbance at 20 min)/(absorbance at 0 min). […]

[7] = test system: diabetic BB rats; experiment: Phenol red gastric emptying assay, diabetic rats; format: in vivo, rat; conditions: 10 μg s.c. 5 minutes before gavage
Source text: as §1

[8] = test system: Harlan Sprague Dawley rats; experiment: Tritiated glucose gastric emptying assay; format: in vivo, rat
Method: Conscious, non-fasted, Harlan Sprague Dawley rats were restrained by the tail, the tip of which was anesthetized using 2% lidocaine. Tritium in plasma separated from tail blood collected 0, 15, 30, 60, 90 and 120 minutes after gavage was detected in a beta counter.

Molecule: amylin (KCNTATCATQRLANFLVHSSNNFGAILSSTNVGSNTY; not fully specified (C-terminus, bridges); cysteine pairing not given here; UniProt P10997 34-70, looked up) [amylin as named in the cited literature, species form not specified at the place]
- Lowering of plasma calcium [1]: up to 20%
- Effect on ethanol- or indomethacin-induced gastritis ([2]; intracerebroventricular injections): did have an effect
- Effect on ethanol- or indomethacin-induced gastritis ([2]; subcutaneous injections): no effect

Molecule: purified human amylin (from UniProt P10997 34-70) (peptide)
- IC50 [3]: 0.05 nM

Molecule: CC[C@H](C)[C@H](NC(=O)[C@@H]1CCCN1C(=O)CNC(=O)[C@H](Cc1ccccc1)NC(=O)[C@H](CC(N)=O)NC(=O)[C@H](CC(N)=O)NC(=O)[C@H](CO)NC(=O)[C@H](CO)NC(=O)[C@H](Cc1c[nH]cn1)NC(=O)[C@@H](NC(=O)[C@H](CC(C)C)NC(=O)[C@H](Cc1ccccc1)NC(=O)[C@H](CC(N)=O)NC(=O)[C@H](C)NC(=O)[C@H](CC(C)C)NC(=O)[C@H](CCCNC(=N)N)NC(=O)[C@H](CCC(N)=O)NC(=O)[C@@H](NC(=O)[C@H](C)NC(=O)[C@@H]1CSSC[C@H](NC(=O)[C@@H](N)CCCCN)C(=O)N[C@@H](CC(N)=O)C(=O)N[C@@H]([C@@H](C)O)C(=O)N[C@@H](C)C(=O)N[C@@H]([C@@H](C)O)C(=O)N1)[C@@H](C)O)C(C)C)C(=O)N[C@@H](CC(C)C)C(=O)N1CCC[C@H]1C(=O)N1CCC[C@H]1C(=O)N[C@H](C(=O)N[C@@H](CC(N)=O)C(=O)N[C@H](C(=O)NCC(=O)N[C@@H](CO)C(=O)N[C@@H](CC(N)=O)C(=O)N[C@H](C(=O)N[C@@H](Cc1ccc(O)cc1)C(N)=O)[C@@H](C)O)C(C)C)[C@@H](C)O [^25,28,29Pro-h-Amylin]
- Amylin activity in vivo [4]: show amylin activity in vivo

Molecule: des-^1Lys-h-amylin (CNTATCATQRLANFLVHSSNNFGAILSSTNVGSNTY)
- Amylin activity in vivo [4]: show amylin activity in vivo

Molecule: rat amylin
- Mucosal damage, percent of scores in the saline-treated controls ([5]; 0.001 μg s.c. 5 min before gavage of 1 ml absolute ethanol): 95.3±15.2%
- Mucosal damage, percent of scores in the saline-treated controls ([5]; 0.01 μg s.c. 5 min before gavage of 1 ml absolute ethanol): 76.6±13.8%
- Mucosal damage, percent of scores in the saline-treated controls ([5]; 0.1 μg s.c. 5 min before gavage of 1 ml absolute ethanol): 70.1±10.7%
- Mucosal damage, percent of scores in the saline-treated controls ([5]; 0.3 μg s.c. 5 min before gavage of 1 ml absolute ethanol): 33.9±7.7%
- Mucosal damage, percent of scores in the saline-treated controls ([5]; 1 μg s.c. 5 min before gavage of 1 ml absolute ethanol): 59.6±5.8%
- Mucosal damage, percent of scores in the saline-treated controls ([5]; 3 μg s.c. 5 min before gavage of 1 ml absolute ethanol): 35.6±11.5%
- Mucosal damage, percent of scores in the saline-treated controls ([5]; 10 μg s.c. 5 min before gavage of 1 ml absolute ethanol): 32.9±8.3%
- Predicted increase in circulating amylin concentrations at the 50% gastroprotective dose ([5]; […] s.c., from published relationship between s.c. dose and peak plasma concentration in rats): 1.8 ± 0.4 pM
- Reduction of the injury score ([5]; as observed with the 10 μg dose): up to 67%
- ED50 for the gastroprotective effect ([5]; s.c., ±0.4 log units): 0.036 μg/rat
- Suppression of gastric emptying [6]: complete
- Suppression of gastric emptying [7]: complete
- Effect on absorption of the label (plasma tritium) ([8]; s.c. 0.1-100 μg 1 minute before gavage): dose-dependently slowed and/or delayed the absorption of the label
- ED50 derived from the logistic fit (plasma tritium AUC over 30 minutes vs dose) ([8]; s.c. 1 minute before gavage of tritiated glucose): 0.35 μg

— patent publication US7101853B2 (Amylin Pharmaceuticals, Inc., priority 1997, dated 2006)
